Columns and labels:
Adenosine receptor A3 = molecular target: T1, Adenosine receptor A3 (Homo sapiens, UniProt P0DMS8)
T1 sequence (P0DMS8 whole entry): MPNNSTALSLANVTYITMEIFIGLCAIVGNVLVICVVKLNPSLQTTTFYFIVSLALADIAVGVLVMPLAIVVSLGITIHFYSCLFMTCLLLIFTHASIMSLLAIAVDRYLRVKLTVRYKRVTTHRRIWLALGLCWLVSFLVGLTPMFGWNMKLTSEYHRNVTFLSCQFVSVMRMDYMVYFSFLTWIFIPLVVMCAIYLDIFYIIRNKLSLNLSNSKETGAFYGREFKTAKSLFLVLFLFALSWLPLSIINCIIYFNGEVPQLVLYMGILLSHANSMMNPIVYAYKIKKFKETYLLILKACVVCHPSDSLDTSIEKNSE

Vasopressin V2 receptor = Vasopressin V2 receptor (Homo sapiens, UniProt P30518)
Sequence of Vasopressin V2 receptor (P30518 whole entry): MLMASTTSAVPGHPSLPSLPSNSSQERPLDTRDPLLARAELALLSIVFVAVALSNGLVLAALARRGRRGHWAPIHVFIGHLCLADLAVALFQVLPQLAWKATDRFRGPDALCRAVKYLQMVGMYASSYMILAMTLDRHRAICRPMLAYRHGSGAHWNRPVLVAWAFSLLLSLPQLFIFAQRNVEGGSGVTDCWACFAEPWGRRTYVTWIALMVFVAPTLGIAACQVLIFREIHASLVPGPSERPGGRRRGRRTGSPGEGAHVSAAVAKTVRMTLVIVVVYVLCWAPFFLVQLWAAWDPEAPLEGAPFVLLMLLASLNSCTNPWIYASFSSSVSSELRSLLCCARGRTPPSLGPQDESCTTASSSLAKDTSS

[1] = molecular target: Voltage-dependent L-type calcium channel subunit alpha-1C (Rattus norvegicus, UniProt P22002); assay type: functional
Sequence of Voltage-dependent L-type calcium channel subunit alpha-1C (P22002 whole entry): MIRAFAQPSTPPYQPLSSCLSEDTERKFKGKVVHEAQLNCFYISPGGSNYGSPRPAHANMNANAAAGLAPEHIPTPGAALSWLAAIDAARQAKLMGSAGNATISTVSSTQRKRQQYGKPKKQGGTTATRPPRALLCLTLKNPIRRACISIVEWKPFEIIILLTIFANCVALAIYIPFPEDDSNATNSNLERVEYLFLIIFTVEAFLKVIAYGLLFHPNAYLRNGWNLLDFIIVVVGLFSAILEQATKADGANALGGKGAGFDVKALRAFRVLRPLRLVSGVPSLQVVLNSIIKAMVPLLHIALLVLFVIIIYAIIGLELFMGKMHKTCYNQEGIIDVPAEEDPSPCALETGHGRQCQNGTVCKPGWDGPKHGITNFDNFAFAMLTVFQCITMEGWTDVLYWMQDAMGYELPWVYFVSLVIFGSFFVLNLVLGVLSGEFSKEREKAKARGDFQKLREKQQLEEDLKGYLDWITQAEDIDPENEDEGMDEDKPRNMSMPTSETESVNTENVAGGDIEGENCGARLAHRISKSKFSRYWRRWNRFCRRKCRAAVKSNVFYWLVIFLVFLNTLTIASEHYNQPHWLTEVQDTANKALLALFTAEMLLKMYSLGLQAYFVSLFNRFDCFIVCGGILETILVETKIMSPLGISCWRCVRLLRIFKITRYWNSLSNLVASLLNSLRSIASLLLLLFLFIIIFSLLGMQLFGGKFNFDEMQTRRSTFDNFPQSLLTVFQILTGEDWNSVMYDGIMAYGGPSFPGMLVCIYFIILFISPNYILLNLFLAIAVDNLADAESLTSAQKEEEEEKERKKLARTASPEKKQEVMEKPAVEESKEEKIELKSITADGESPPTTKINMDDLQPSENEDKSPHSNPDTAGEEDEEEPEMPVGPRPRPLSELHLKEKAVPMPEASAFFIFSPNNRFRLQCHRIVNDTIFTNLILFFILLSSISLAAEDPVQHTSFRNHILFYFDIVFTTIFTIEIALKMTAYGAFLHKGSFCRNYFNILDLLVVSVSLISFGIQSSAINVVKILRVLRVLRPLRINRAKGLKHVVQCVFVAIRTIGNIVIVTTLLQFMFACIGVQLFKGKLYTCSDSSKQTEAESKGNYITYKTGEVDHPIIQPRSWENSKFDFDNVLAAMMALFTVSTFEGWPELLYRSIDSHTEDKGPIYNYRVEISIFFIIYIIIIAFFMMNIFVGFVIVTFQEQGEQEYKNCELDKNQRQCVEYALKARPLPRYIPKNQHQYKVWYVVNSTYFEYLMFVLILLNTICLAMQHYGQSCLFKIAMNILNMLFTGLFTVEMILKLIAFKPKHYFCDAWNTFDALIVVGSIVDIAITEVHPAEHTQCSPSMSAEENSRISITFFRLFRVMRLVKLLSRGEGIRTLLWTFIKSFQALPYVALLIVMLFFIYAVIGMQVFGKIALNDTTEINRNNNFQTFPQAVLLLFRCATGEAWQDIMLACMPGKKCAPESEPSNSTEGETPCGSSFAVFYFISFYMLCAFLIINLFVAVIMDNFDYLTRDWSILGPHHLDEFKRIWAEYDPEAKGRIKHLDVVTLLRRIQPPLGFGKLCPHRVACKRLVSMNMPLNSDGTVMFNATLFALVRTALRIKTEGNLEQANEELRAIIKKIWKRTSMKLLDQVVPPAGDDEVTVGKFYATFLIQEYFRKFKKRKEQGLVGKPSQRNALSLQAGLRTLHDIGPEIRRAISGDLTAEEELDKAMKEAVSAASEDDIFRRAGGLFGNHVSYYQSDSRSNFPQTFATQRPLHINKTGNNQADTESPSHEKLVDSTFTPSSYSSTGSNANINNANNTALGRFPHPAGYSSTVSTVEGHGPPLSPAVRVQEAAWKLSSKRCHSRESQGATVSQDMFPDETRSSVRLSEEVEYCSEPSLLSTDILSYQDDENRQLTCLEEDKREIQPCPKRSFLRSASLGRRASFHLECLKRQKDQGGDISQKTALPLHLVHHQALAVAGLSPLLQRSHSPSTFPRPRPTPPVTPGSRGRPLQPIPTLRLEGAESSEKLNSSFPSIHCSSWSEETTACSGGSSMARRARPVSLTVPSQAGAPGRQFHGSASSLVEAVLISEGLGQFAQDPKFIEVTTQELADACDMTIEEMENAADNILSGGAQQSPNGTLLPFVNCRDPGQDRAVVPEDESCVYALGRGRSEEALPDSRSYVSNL

[2] = molecular target: T2, Muscarinic acetylcholine receptor M1 (Homo sapiens, UniProt P11229); assay type: functional
T2 sequence (P11229 whole entry): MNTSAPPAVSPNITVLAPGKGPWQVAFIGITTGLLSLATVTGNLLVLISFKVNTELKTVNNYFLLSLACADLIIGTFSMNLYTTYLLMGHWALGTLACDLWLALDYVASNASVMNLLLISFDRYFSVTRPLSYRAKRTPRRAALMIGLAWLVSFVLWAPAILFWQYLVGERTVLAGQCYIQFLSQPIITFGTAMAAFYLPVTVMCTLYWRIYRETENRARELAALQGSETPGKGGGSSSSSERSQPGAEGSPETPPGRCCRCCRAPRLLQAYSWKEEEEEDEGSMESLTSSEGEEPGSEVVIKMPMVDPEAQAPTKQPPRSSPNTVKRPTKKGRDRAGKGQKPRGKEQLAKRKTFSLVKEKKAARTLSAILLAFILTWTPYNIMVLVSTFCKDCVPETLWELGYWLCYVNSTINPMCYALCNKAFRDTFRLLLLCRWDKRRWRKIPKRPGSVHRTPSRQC

Cannabinoid receptor 1 [3] = molecular target: T3, Cannabinoid receptor 1 (Homo sapiens, UniProt P21554); assay type: functional, cell-based
T3 sequence (P21554 whole entry): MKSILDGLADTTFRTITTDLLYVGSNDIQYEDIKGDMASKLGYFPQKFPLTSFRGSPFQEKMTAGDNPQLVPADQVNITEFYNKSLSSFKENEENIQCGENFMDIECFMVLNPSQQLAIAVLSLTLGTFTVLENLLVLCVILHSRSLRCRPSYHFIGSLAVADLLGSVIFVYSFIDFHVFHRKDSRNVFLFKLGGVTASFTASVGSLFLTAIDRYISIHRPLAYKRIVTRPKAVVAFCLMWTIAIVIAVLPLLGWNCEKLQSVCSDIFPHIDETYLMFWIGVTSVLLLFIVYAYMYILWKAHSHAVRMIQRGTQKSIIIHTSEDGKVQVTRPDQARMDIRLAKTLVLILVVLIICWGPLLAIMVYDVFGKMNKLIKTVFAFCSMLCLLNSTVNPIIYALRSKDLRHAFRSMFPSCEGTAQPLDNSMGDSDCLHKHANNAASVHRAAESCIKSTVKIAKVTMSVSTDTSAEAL

Cannabinoid receptor 1 [4] = molecular target: T3, Cannabinoid receptor 1; assay type: functional, cell-based; remark: listed apart in the source
Endothelin-1 receptor = molecular target: T4, Endothelin-1 receptor (Homo sapiens, UniProt P25101)
T4 sequence (P25101 whole entry): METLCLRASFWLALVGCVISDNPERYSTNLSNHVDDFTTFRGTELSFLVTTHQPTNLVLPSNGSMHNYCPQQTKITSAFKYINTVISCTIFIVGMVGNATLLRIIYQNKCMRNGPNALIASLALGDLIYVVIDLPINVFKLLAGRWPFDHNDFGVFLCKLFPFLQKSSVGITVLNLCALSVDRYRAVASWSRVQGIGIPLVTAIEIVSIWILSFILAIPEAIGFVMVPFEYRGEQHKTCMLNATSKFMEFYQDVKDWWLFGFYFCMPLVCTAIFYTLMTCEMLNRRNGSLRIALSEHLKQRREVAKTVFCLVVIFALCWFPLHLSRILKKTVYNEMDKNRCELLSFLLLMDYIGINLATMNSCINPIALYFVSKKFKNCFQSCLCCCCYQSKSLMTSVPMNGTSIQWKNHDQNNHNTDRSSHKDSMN

[5] = molecular target: Growth hormone secretagogue receptor type 1 (Homo sapiens, UniProt Q92847)
[6] = molecular target: Glutamate receptor ionotropic, NMDA 1 (Rattus norvegicus, UniProt P35439)
[7] = molecular target: T5, 5-hydroxytryptamine receptor 1A (Homo sapiens, UniProt P08908); assay type: functional, cell-based
T5 sequence (P08908 whole entry): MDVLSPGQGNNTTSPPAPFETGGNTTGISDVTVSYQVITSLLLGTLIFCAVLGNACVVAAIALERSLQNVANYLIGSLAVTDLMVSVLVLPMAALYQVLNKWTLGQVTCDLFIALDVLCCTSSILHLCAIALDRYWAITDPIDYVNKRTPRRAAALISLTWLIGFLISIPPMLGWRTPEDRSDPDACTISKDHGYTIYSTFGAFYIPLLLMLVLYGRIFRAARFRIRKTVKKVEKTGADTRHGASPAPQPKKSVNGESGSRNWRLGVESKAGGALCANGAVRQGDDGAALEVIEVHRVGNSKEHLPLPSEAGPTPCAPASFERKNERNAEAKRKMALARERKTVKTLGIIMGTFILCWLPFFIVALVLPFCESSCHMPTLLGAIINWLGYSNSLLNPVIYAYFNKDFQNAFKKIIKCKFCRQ

[8] = molecular target: T6, 5-hydroxytryptamine receptor 2B (Homo sapiens, UniProt P41595); assay type: functional, cell-based
[9] = molecular target: T6, 5-hydroxytryptamine receptor 2B; assay type: functional, cell-based; remark: listed apart in the source
Mu-type opioid receptor = Mu-type opioid receptor (Homo sapiens, UniProt P35372); assay: biochemical; assay type: functional
Sequence of Mu-type opioid receptor (P35372 whole entry): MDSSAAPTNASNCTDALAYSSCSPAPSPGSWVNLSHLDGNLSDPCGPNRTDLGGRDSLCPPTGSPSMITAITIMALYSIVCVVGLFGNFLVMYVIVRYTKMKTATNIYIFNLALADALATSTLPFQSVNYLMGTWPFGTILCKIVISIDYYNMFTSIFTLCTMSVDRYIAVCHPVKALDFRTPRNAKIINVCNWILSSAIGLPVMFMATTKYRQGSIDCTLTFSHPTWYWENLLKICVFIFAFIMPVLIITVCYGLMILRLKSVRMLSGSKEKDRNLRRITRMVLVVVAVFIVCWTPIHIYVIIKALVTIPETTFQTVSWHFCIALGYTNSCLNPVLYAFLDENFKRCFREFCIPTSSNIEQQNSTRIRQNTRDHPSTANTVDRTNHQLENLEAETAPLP

[10] = molecular target: 3',5'-cyclic-AMP phosphodiesterase 4D (Homo sapiens, UniProt Q08499); assay type: functional
Sequence of 3',5'-cyclic-AMP phosphodiesterase 4D (Q08499 whole entry): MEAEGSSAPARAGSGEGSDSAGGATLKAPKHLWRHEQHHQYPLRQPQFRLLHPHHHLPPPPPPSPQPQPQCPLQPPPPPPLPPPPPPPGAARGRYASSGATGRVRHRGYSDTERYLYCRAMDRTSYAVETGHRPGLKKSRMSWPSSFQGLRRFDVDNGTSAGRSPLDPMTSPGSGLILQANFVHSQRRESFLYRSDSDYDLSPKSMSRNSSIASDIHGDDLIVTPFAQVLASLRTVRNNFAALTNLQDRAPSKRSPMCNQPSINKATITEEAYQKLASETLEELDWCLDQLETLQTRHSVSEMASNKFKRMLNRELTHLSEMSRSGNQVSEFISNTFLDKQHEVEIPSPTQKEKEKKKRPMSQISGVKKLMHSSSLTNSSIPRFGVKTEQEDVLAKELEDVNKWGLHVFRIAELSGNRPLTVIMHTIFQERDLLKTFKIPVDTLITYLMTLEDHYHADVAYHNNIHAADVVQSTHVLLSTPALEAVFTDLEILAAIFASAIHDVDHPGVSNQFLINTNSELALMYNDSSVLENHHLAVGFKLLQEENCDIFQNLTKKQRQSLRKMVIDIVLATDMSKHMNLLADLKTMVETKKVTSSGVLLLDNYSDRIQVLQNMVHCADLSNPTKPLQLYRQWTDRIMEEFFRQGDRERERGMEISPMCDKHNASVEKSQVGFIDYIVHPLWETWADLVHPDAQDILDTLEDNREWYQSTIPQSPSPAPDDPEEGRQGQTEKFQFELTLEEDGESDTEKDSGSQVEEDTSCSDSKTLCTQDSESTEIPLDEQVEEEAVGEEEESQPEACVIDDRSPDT

[11] = molecular target: T7, Equilibrative nucleoside transporter 1 (Homo sapiens, UniProt Q99808)
T7 sequence (Q99808 whole entry): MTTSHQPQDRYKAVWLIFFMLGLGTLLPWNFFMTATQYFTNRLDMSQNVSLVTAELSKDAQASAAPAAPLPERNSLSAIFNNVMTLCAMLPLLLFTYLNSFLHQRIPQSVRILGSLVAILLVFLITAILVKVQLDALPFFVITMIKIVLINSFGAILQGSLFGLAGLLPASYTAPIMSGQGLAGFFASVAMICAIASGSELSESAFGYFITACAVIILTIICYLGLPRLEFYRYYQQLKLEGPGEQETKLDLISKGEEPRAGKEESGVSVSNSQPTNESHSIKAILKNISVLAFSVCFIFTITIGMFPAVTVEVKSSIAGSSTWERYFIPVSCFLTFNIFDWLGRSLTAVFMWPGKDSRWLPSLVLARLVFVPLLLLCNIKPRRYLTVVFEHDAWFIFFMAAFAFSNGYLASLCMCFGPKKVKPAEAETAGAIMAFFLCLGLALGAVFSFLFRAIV

[12] = molecular target: Sodium-dependent serotonin transporter (Homo sapiens, UniProt P31645)
Sequence of Sodium-dependent serotonin transporter (P31645 whole entry): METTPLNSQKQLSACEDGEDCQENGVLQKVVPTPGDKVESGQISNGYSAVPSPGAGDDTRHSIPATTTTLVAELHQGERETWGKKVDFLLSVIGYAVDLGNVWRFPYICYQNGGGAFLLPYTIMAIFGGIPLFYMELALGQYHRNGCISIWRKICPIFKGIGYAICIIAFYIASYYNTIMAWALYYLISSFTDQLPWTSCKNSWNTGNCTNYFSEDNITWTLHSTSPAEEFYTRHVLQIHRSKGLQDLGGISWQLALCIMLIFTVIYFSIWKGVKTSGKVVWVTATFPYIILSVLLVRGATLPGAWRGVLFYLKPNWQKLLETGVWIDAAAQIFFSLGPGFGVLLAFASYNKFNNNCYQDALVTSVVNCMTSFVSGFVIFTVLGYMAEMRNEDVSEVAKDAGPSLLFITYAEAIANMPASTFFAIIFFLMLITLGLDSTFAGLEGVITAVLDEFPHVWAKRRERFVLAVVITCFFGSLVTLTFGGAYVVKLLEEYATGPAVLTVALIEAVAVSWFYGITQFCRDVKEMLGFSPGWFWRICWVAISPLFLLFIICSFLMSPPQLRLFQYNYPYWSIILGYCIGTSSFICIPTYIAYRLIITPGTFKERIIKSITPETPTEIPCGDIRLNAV

[13] = molecular target: T5, 5-hydroxytryptamine receptor 1A; assay type: functional, cell-based; remark: listed apart in the source
Also: assay procedure not described here.

SMILES | AC50 (Adenosine receptor A3) [µM] | AC50 (Vasopressin V2 receptor) [µM] | AC50 [1] [µM] | AC50 [2] [µM] | AC50 (Cannabinoid receptor 1 [3]) [µM] | AC50 (Cannabinoid receptor 1 [4]) [µM] | AC50 (Endothelin-1 receptor) [µM] | AC50 [5] [µM] | AC50 [6] [µM] | AC50 [7] [µM] | AC50 [8] [µM] | AC50 [9] [µM] | AC50 (Mu-type opioid receptor) [µM] | AC50 [10] [µM] | AC50 [11] [µM] | AC50 [12] [µM] | AC50 [13] [µM]
O=C(O)Cc1cn(-c2ccccc2)nc1-c1ccc(Cl)cc1 [LONAZOLAC] | > 30 | > 30 | > 30 | > 30 | > 30 | > 30 | > 30 | > 30 | > 30 | > 30 | > 30 | > 30 | > 30 | > 30 | > 30 | > 30 | 
C[C@H]1C[C@@H]2[C@H]([C@@H](O)C[C@@]3(C)[C@H]2CC[C@]3(O)C(=O)COC(=O)CCC(=O)O)[C@@]2(C)C=CC(=O)C=C12 [METHYLPREDNISOLONE HEMISUCCINATE] | > 30 | > 30 |  | > 30 | > 30 | > 30 | > 30 | > 30 | > 30 | > 30 | > 30 | > 30 | > 30 | > 30 | > 30 | > 30 | > 30
CCCCC(C)(O)C/C=C/[C@H]1[C@H](O)CC(=O)[C@@H]1CCCCCCC(=O)OC (stereo partly specified) [MISOPROSTOL] | > 30 | > 30 |  | > 30 | > 30 | > 30 | > 30 | > 30 | > 30 | > 30 | > 30 | > 30 | > 30 | > 30 | > 30 | > 30 | > 30
O=C(OCCN1CCOCC1)c1cccnc1Nc1cccc(C(F)(F)F)c1 [MORNIFLUMATE] | > 30 | > 30 | > 30 | > 30 | > 30 | > 30 | > 30 | > 30 | > 30 | > 30 | > 30 | 10 | > 30 | 4.3 | > 30 | > 30 | 
CCCCCCCCOc1ccccc1C(=O)Nc1ccc(C(=O)OCC[N+](C)(CC)CC)cc1 [OTILONIUM BROMIDE] | 5.3 | 9.9 | 16 | 1.3 | > 30 | 19 | > 1 | 7.6 | > 30 | 11 | 12 | 3.1 | > 30 | 2.5 | 17 | 0.91 | 
Cc1c(Cl)cccc1Nc1ccccc1C(=O)O [TOLFENAMIC ACID] | 12 | > 30 | > 30 | > 30 | > 30 | > 30 | > 30 | > 30 | > 30 | > 30 | > 30 | > 30 | > 30 | > 30 |  | > 30 | 22

Source: ChEMBL document CHEMBL5291721, “A preclinical secondary pharmacology resource illuminates target-adverse drug reaction associations of marketed drugs” (Nat Commun, 2023)
